Measurements: the supplement of paper PMC13207355

Legend:
Settings in all cases: exposure time: 72 h
[1] = system: E13 (patient-derived glioblastoma stem cells of classical subtype); assay: surviving fraction (nuclei count normalised to DMSO); higher = more cells surviving (less toxic)
[2] = system: E21 (patient-derived glioblastoma stem cells of mesenchymal subtype); assay: as above
[3] = system: E28 (patient-derived glioblastoma stem cells of classical subtype); assay: as above
[4] = system: E31 (patient-derived glioblastoma stem cells of proneural subtype); assay: as above
[5] = system: E34 (patient-derived glioblastoma stem cells of proneural subtype); assay: as above
[6] = system: E57 (patient-derived glioblastoma stem cells of mesenchymal subtype); assay: as above
[7] = system: FT3469 (normal neural stem cell line); assay: as above
[8] = system: E13; assay: phenotypic distance (Euclidean, principal components) from DMSO controls (arbitrary units); higher = stronger morphological change
[9] = system: E21; assay: as above
[10] = system: E28; assay: as above
[11] = system: E31; assay: as above
[12] = system: E34; assay: as above
[13] = system: E57; assay: as above
[14] = system: FT3469; assay: as above
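Wherever phenotypic distance (Euclidean, principal components) from DMSO controls is given: cell Painting imaging in 384-well plates, CellProfiler features reduced to at least 20 principal components, Euclidean distance versus same-plate DMSO vehicle wells (0.1% v/v), median over six images per well.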
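Wherever surviving fraction (nuclei count normalised to DMSO) is given: nuclei counted by high-content imaging of Hoechst-stained cells in laminin-coated 384-well plates, relative to 0.1% DMSO vehicle wells, with staurosporine as cell-death control.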

Work on `COc1cccc2c(NCc3ccccc3)nc(-n3c(N)nc4ccccc43)nc12` [ML240] yielded a surviving fraction ([1]; 4.1 nM) of 1.1, a surviving fraction ([1]; 12.3 nM) of 0.999 and a surviving fraction ([1]; 37 nM) of 1.1. It also gave a surviving fraction ([1]; 111.1 nM) of 1.02, a surviving fraction ([1]; 333.3 nM) of 0.985 and a surviving fraction ([1]; 1000 nM) of 0.147. For the same molecule, the surviving fraction ([1]; 3000 nM) was 0.00521, the surviving fraction ([2]; 4.1 nM) was 1.05 and the surviving fraction ([2]; 12.3 nM) was 1.01. For the same molecule, the surviving fraction ([2]; 37 nM) was 1.02, the surviving fraction ([2]; 111.1 nM) was 1.1 and the surviving fraction ([2]; 333.3 nM) was 1.03. It also gave a surviving fraction ([2]; 1000 nM) of 1.11, a surviving fraction ([2]; 3000 nM) of 0.0028 and a surviving fraction ([3]; 4.1 nM) of 1.09. It also gave a surviving fraction ([3]; 12.3 nM) of 0.996, a surviving fraction ([3]; 37 nM) of 1.01 and a surviving fraction ([3]; 111.1 nM) of 1.17. It also gave a surviving fraction ([3]; 333.3 nM) of 1.03, a surviving fraction ([3]; 1000 nM) of 0.32 and a surviving fraction ([3]; 3000 nM) of 0.0108. The surviving fraction ([4]; 4.1 nM) was 0.934, the surviving fraction ([4]; 12.3 nM) was 1.36 and the surviving fraction ([4]; 37 nM) was 1.1. For the same molecule, the surviving fraction ([4]; 111.1 nM) was 1.17, the surviving fraction ([4]; 333.3 nM) was 1.19 and the surviving fraction ([4]; 1000 nM) was 0.0987. The surviving fraction ([4]; 3000 nM) was 0, the surviving fraction ([5]; 4.1 nM) was 1.18 and the surviving fraction ([5]; 12.3 nM) was 1.12. It also gave a surviving fraction ([5]; 37 nM) of 1.04, a surviving fraction ([5]; 111.1 nM) of 1.05 and a surviving fraction ([5]; 333.3 nM) of 1.18. It also gave a surviving fraction ([5]; 1000 nM) of 0.54, a surviving fraction ([5]; 3000 nM) of 0.00732 and a surviving fraction ([6]; 4.1 nM) of 0.984. The surviving fraction ([6]; 12.3 nM) was 0.993, the surviving fraction ([6]; 37 nM) was 1.05 and the surviving fraction ([6]; 111.1 nM) was 0.972. For the same molecule, the surviving fraction ([6]; 333.3 nM) was 1.08, the surviving fraction ([6]; 1000 nM) was 0.255 and the surviving fraction ([6]; 3000 nM) was 0.00471. For the same molecule, the surviving fraction ([7]; 4.1 nM) was 0.963, the surviving fraction ([7]; 12.3 nM) was 1.03 and the surviving fraction ([7]; 37 nM) was 1.15. It also gave a surviving fraction ([7]; 111.1 nM) of 1.33, a surviving fraction ([7]; 333.3 nM) of 1.25 and a surviving fraction ([7]; 1000 nM) of 0.68. The surviving fraction ([7]; 3000 nM) was 0.00884, the phenotypic distance ([8]; 4.1 nM) was 0.694 and the phenotypic distance ([8]; 12.3 nM) was 0.435. It also gave a phenotypic distance ([8]; 37 nM) of 0.787, a phenotypic distance ([8]; 111.1 nM) of 0.753 and a phenotypic distance ([8]; 333.3 nM) of 0.67. It also gave a phenotypic distance ([8]; 1000 nM) of 8.35, a phenotypic distance ([8]; 3000 nM) of 10.2 and a phenotypic distance ([9]; 4.1 nM) of 0.814. For the same molecule, the phenotypic distance ([9]; 12.3 nM) was 0.418, the phenotypic distance ([9]; 37 nM) was 0.532 and the phenotypic distance ([9]; 111.1 nM) was 0.655. The phenotypic distance ([9]; 333.3 nM) was 0.51, the phenotypic distance ([9]; 1000 nM) was 1.08 and the phenotypic distance ([9]; 3000 nM) was 13.5. It also gave a phenotypic distance ([10]; 4.1 nM) of 0.413, a phenotypic distance ([10]; 12.3 nM) of 0.802 and a phenotypic distance ([10]; 37 nM) of 0.589. For the same molecule, the phenotypic distance ([10]; 111.1 nM) was 0.977, the phenotypic distance ([10]; 333.3 nM) was 0.531 and the phenotypic distance ([10]; 1000 nM) was 5.33. It also gave a phenotypic distance ([10]; 3000 nM) of 7.6, a phenotypic distance ([11]; 4.1 nM) of 0.647 and a phenotypic distance ([11]; 12.3 nM) of 0.799. The phenotypic distance ([11]; 37 nM) was 0.394, the phenotypic distance ([11]; 111.1 nM) was 0.491 and the phenotypic distance ([11]; 333.3 nM) was 0.297. The phenotypic distance ([11]; 1000 nM) was 6.73, the phenotypic distance ([11]; 3000 nM) was 18.7 and the phenotypic distance ([12]; 4.1 nM) was 0.596. The phenotypic distance ([12]; 12.3 nM) was 0.636, the phenotypic distance ([12]; 37 nM) was 0.602 and the phenotypic distance ([12]; 111.1 nM) was 0.587. It also gave a phenotypic distance ([12]; 333.3 nM) of 0.358, a phenotypic distance ([12]; 1000 nM) of 1.49 and a phenotypic distance ([12]; 3000 nM) of 14.2. The phenotypic distance ([13]; 4.1 nM) was 0.375, the phenotypic distance ([13]; 12.3 nM) was 0.566 and the phenotypic distance ([13]; 37 nM) was 0.385. For the same molecule, the phenotypic distance ([13]; 111.1 nM) was 0.473, the phenotypic distance ([13]; 333.3 nM) was 1.84 and the phenotypic distance ([13]; 1000 nM) was 4.85. The phenotypic distance ([13]; 3000 nM) was 6.71, the phenotypic distance ([14]; 4.1 nM) was 0.656 and the phenotypic distance ([14]; 12.3 nM) was 0.706. The phenotypic distance ([14]; 37 nM) was 0.538, the phenotypic distance ([14]; 111.1 nM) was 1.16 and the phenotypic distance ([14]; 333.3 nM) was 0.736. For the same molecule, the phenotypic distance ([14]; 1000 nM) was 1.85 and the phenotypic distance ([14]; 3000 nM) was 11.7.
